Measured values published in patent US20050164196A1, “Methods to predict patient responsiveness to tyrosine kinase inhibitors” (priority 2002, published 2005).
“And” between values parts separate entries of the source, which are not always exact repeats. Equal entries are not always repeated. Structures can show the parent of a compound that is named as a salt. Where two headings read alike, the source gives them in different places.

Assays:
CML = conditions: cited from earlier work
[1] = rs2290573 CC genotype, n = 26, 18-month data, ITT principle
[2] = rs2290573 CT, TT genotype, n = 79, 18-month data, ITT principle
[3] = of 54 CML patients treated with 300 mg or more

Compound: Cc1ccc(NC(=O)c2ccc(CN3CCN(C)CC3)cc2)cc1Nc1nccc(-c2cccnc2)n1 [Imatinib, Imatinib mesylate]
- events of progression (Ph+ CML; genotyped patients of the Imatinib arm, 18-month data, ITT principle): 10 events
- TTP (months) (Ph+ CML; individual patients with disease progression among the 105 analyzed patients, 18-month data, one line per patient, listed as STI571): 16.1 months and 16.3 months and 11.8 months and 17.0 months and 13.4 months and 16.4 months and 9.7 months and 15.8 months and 5.6 months and 6.8 months
- individuals who exhibited disease progression (Ph+ CML; out of the entire 553 treated patients, 12-month data): 24 individuals
- patients who experienced progression events (Ph+ CML; rs2290573 CC genotype, 26 patients, 18-month data): 23.1%
- Death (as primary reason for discontinuation) (Ph+ CML; [1]): 0 (0) n (%)
- Increase in WBC (approved by SMC) (Ph+ CML; [1]): 1 (3.8) n (%)
- Loss of CHR (Ph+ CML; [1]): 1 (3.8) n (%)
- Loss of MCyR (Ph+ CML; [1]): 4 (15.4) n (%)
- Progression to AP or BC (Ph+ CML; [1]): 0 (0) n (%)
- Total number of patients with events (progression) (Ph+ CML; [1]): 6 (23.1) n (%)
- patients who experienced progression events (Ph+ CML; rs2290573 CT or TT genotype, 79 patients, 18-month data): 5.1%
- Death (as primary reason for discontinuation) (Ph+ CML; [2]): 0 (0) n (%)
- Increase in WBC (approved by SMC) (Ph+ CML; [2]): 0 (0) n (%)
- Loss of CHR (Ph+ CML; [2]): 2 (2.5) n (%)
- Loss of MCyR (Ph+ CML; [2]): 0 (0) n (%)
- Progression to AP or BC (Ph+ CML; [2]): 2 (2.5) n (%)
- Total number of patients with events (progression) (Ph+ CML; [2]): 4 (5.1) n (%)
- major responses (0-35% of cells in metaphase positive for the Ph′ chromosome) (CML; % of the 54 patients who received 300 mg or more): 31%
- complete cytogenetic remission (CCR) (CML; [3]): 7 patients
- complete hematologic responses (CHR) (CML; [3]): 53 patients
- cytogenic responses (CML; [3]): 29 patients
- major responses (0-35% of cells in metaphase positive for the Ph′ chromosome) (CML; [3]): 17 patients
